Assay results reported in patent US20260041640A1 (INCYCLIX BIO, LLC, priority 2023, published 2026).
Values after ≈ are worked out from the molar mass of the structure shown. Where two headings read alike, the source gives them in different places.

Columns and labels:
[1] = Plasma protein binding, human; assay type: in vitro ADME
Description: Additionally, the whole blood-to-plasma ratio (KWB/P) in humans is 6.20, which also exceeds the other species tested (Table 7).

[2] = Aqueous solubility of INX-315; assay type: physicochemical
[3] = test system: ST4316B ER+, CDK4/6 inhibitor-resistant breast PDX model; assay: ST4316B ER+, CDK4/6 inhibitor-resistant breast PDX model; assay type: in vivo, athymic nude mice
Procedure: Athymic nude, outbread homozygous (Crl:NU(NCr)-Foxnl^nu) 6-12-week-old ST4316B [HX] mice were analyzed. Tumor fragments from ST4316B were harvested from host animals and implanted into immune-deficient mice and the study initiated at a mean tumor volume of approximately 150-300 mm^3. […] Data collected from this study included animal weights, observations, and tumor dimensions. This information was used to determine agent tolerability based on weight change and gross physiologic changes; and anticancer activity based on tumor growth inhibition or regression. […]

[4] = Toxicity and toxicokinetics studies, mouse; assay type: in vivo, mice
Procedure: Nominal dose values and sampling times were used for calculations. Any concentration reported as BLQ (LLOQ<1.0 ng/mL) was set equal to zero. Toxicokinetic analyses included Cmax, Tmax, AUC0-24, t1/2, RA Cmax, and RA AUC0-24.
Following this, human dose exposure was simulated using a combined whole blood and plasma compartment PK model using allometry and whole blood parameter estimates for the absorption rate constants and bioavailability per animal species. Absolute dose administration was used for modeling. V1, CL, V2, and Q parameters were extrapolated to human using allometric scaling. CL, Q by exponent equaled 0.818. V1, V2 by exponent equaled 1.03. Human body weight was set to 75 kg. Absorption rate constant (KA) was in reasonable ranges in mouse, rat, and dog, with values of 0.44, 0.53, and 0.18 (1/hr), respectively.

Structure (SMILES): NS(=O)(=O)c1ccc(Nc2ncc3cc4n(c3n2)C2(CCCCC2)C(=O)NN4)cc1 [INX-315]
- fraction unbound [1]: 0.056
- solubility ([2]; 0.01 N HCl, simulated gastric fluid, 0.01N HCl, read-out: Dissolved Drug Solubility): 269 ± 92 µg/mL (≈ 629 µM)
- solubility ([2]; 50 mM Na acetate, aqueous buffer, 50 mM Na Acetate, read-out: Total Drug Solubility): 19 ± 7 µg/mL (≈ 44.4 µM)
- solubility ([2]; 0.224% SIF in PBS, fassif, 0.224% SIF in PBS, read-out: Dissolved Drug Solubility): 5.3 ± 0.4 µg/mL (≈ 12.4 µM)
- solubility ([2]; 0.224% SIF in PBS, fassif, 0.224% SIF in PBS, read-out: Total Drug Solubility): 6.1 ± 0.4 µg/mL (≈ 14.3 µM)
- solubility ([2]; 0.5% SIF in PBS, fassgf or other biorelevant, 0.5% SIF in PBS, read-out: Dissolved Drug Solubility): 11 ± 1 µg/mL (≈ 25.7 µM)
- solubility ([2]; 0.5% SIF in PBS, fassgf or other biorelevant, 0.5% SIF in PBS, read-out: Total Drug Solubility): 15 ± 0.2 µg/mL (≈ 35.1 µM)
- solubility ([2]; 0.5% Tween-80 in PBS, aqueous with cosolvent or surfactant or cyclodextrin, 0.5% Tween-80 in PBS, read-out: Dissolved Drug Solubility): 59 ± 8 µg/mL (≈ 138 µM)
- solubility ([2]; 0.5% Tween-80 in PBS, aqueous with cosolvent or surfactant or cyclodextrin, 0.5% Tween-80 in PBS, read-out: Total Drug Solubility): 55 ± 1 µg/mL (≈ 129 µM)
- solubility ([2]; 1% SIF in PBS, fassgf or other biorelevant, 1% SIF in PBS, read-out: Dissolved Drug Solubility): 16.3 ± 0.1 µg/mL (≈ 38.1 µM)
- solubility ([2]; 1% SIF in PBS, fassgf or other biorelevant, 1% SIF in PBS, read-out: Total Drug Solubility): 16.4 ± 0.1 µg/mL (≈ 38.4 µM)
- solubility ([2]; 1% SLS in water, aqueous with cosolvent or surfactant or cyclodextrin, 1% SLS in H2O, read-out: Dissolved Drug Solubility): 40 ± 1 µg/mL (≈ 93.6 µM)
- solubility ([2]; 5% TPGS in PBS, aqueous with cosolvent or surfactant or cyclodextrin, 5% TPGS in PBS, read-out: Dissolved Drug Solubility): 313 ± 21 µg/mL (≈ 732 µM)
- solubility ([2]; 5% TPGS in PBS, aqueous with cosolvent or surfactant or cyclodextrin, 5% TPGS in PBS, read-out: Total Drug Solubility): 305 ± 10 µg/mL (≈ 713 µM)
- solubility ([2]; PBS/Blank FaSSIF, aqueous buffer, PBS/Blank FaSSIF, read-out: Total Drug Solubility): 17 ± 2 µg/mL (≈ 39.8 µM)
- BCS classification ([2]; high permeability, low solubility): BCS-2
- solubility ([2]; water, H2O, read-out: Total Drug Solubility): 61 ± 14 µg/mL (≈ 143 µM)
- tumor growth inhibition versus control ([3]; Day 31, INX-315 100 mg/kg BID + ribociclib 50 mg/kg QD, p=0.0033): statistically significant tumor growth inhibition
- tumor growth inhibition percentage (TGI %) ([3]; Day 45, INX-315 100 mg/kg BID + ribociclib 50 mg/kg QD (Group 8), p<0.0002): 65%
- Absorption rate constant (KA) ([4]; model parameter estimate): 0.44 h⁻¹
- bioavailability ([4]; whole blood, po, read-out: Bioavailability (F1)): 62%
